Reference: patent US4022791A (priority 1975, dated 1977)

Assays:
Rats = tested on: Rats; set-up: Rat Jump .5 hr (current at which the animal first jumps) / Rat Jump .5 hr, second value printed in parentheses / Rat Jump 2 hr (current at which the animal first jumps): unit not given here; conditions: in vivo
mice [1] = conditions: mouse, in vivo; for Tail Flick 2 hr (percentage of analgesia response) / Tail Flick .5 hr (percentage of analgesia response): ip
mice [2] = conditions: mouse, in vivo; for Hot Plate 2 hr (percentage of mice showing analgesia) / Hot Plate .5 hr (percentage of mice showing analgesia): ip
mice [3] = assay: animal or person; format: in vivo, mouse; conditions: mouse, in vivo, ip
Throughout, for Hot Plate .5 hr (percentage of mice showing analgesia): test concentration or dose not given here.
Throughout, for Hot Plate 2 hr (percentage of mice showing analgesia): test concentration or dose not given here.
Throughout, for Tail Flick .5 hr (percentage of analgesia response): test concentration or dose not given here.
Throughout, for Tail Flick 2 hr (percentage of analgesia response): test concentration or dose not given here.
Throughout, for Tail Pinch .5 hr (percentage of mice showing analgesia): test concentration or dose not given here.
Throughout, for Tail Pinch 2 hr (percentage of mice showing analgesia): test concentration or dose not given here.

SMILES	Rat Jump .5 hr (current at which the animal first jumps) (Rats; ip)	Tail Flick 2 hr (percentage of analgesia response) (mice [1])	Tail Flick .5 hr (percentage of analgesia response) (mice [1])	Rat Jump 2 hr (current at which the animal first jumps) (Rats; ip)	Hot Plate 2 hr (percentage of mice showing analgesia) (mice [2])	Hot Plate .5 hr (percentage of mice showing analgesia) (mice [2])	Tail Pinch 2 hr (percentage of mice showing analgesia) (mice [3])	Tail Pinch .5 hr (percentage of mice showing analgesia) (mice [3])	activity in the Rat Jump Test (Rats)	activity in the Hot Plate test (mice [2])	activity in the Tail Flick test (mice [1])	Rat Jump .5 hr, second value printed in parentheses (Rats; ip)
CN1CC[C@]23c4c5ccc(O)c4O[C@H]2[C@@H](O)C=C[C@H]3[C@H]1C5.O=S(=O)(O)O [Morphine Sulfate, reference compound]	> 2.2	100	100	–	–	–	–	–	–	–	–	–
COc1ccc(Cl)c2c1CCC(CN1CCC(C)CC1)=C2	1.2	0	0	1.2	0	10	0	0	–	–	–	–
COc1ccc(Cl)c2c1CCC(CN1CCC(C(N)=O)(N3CCCCC3)CC1)=C2	1.2	–	–	1.6	–	–	–	–	–	–	–	–
COc1ccc(Cl)c2c1CCC(CN1CCC(c3ccccc3)CC1)=C2	1.2	0	0	1.2	0	30	0	0	–	–	–	–
COc1ccc(Cl)c2c1CCC(CN1CCC(O)CC1)=C2	1.2	0	0	1.2	0	0	0	0	–	–	–	–
COc1ccc(Cl)c2c1CCC(CN1CCN(c3ccc(Cl)cc3)CC1)=C2	1.2	0	0	1.2	0	10	0	0	–	–	–	–
COc1ccc(Cl)c2c1CCC(CN(C)C)=C2 [N(CH3)2]	1.2	0	0	0.6	0	0	0	0	–	–	–	–
COc1ccc(Cl)c2c1CCC(CN1CCC(C(=O)N(C)C)CC1)=C2	1.2	–	–	1.2	–	–	–	–	–	–	–	–
COc1ccc(Cl)c2c1CCC(CN1CCCC1)=C2C [reference compound]	–	–	–	–	–	–	–	–	inactive	marginal activity	marginal activity	–
COc1ccc(Cl)c2c1CCC(CN1CCN(c3cccc(C(F)(F)F)c3)CC1)=C2	1.2	0	0	1.2	0	10	0	0	–	–	–	–
COc1ccc(Cl)c2c1CCC(CN1CCC(C(=O)N3CCOCC3)CC1)=C2	1.2	–	–	1.2	–	–	–	–	–	–	–	–
COc1ccc(Cl)c2c1CCC(CN1CCSC1)=C2	1.2	0	0	1.2	0	0	0	0	–	–	–	–
CCOC1(c2ccccc2)CCN(CC2=Cc3c(Cl)ccc(OC)c3CC2)CC1	1.2	0	10	1.2	0	50	20	0	–	–	–	–
COc1ccc(Cl)c2c1CCC(CN1CC=C(c3ccc(Cl)cc3)CC1)=C2	1.2	0	0	1.2	0	0	0	0	–	–	–	–
COc1ccc(Cl)c2c1CCC(CN1CCC(O)(c3ccccc3)CC1)=C2	1.2	0	30	1.2	0	50	0	0	–	–	–	–
COc1ccc(Cl)c2c1CCC(CN1CCCC(C(N)=O)C1)=C2 (centres unmarked)	1.6	0	0	2.2	0	0	0	0	–	–	–	–
COc1ccc(Cl)c2c1CCC(CN1CCC(OC(C)=O)(c3ccccc3)CC1)=C2 [drawing 79]	> 2.2	70	90	> 2.2	80	100	100	100	–	–	–	–
COc1ccc(Cl)c2c1CCC(CN(C)CCN1CCCC1)=C2	1.2	0	0	1.2	0	0	0	0	–	–	–	–
CNC(=O)C1CCN(CC2=Cc3c(Cl)ccc(OC)c3CC2)CC1	1.2	0	40	1.2	0	60	0	0	–	–	–	–
COc1ccc(Cl)c2c1CCC(CN1CCC(O)(c3ccc(Cl)cc3)CC1)=C2	1.2	0	0	1.6	0	20	0	0	–	–	–	–
COc1ccc(N2CCN(CC3=Cc4c(Cl)ccc(OC)c4CC3)CC2)cc1	1.2	0	0	1.2	0	0	0	0	–	–	–	–
COc1ccc(Cl)c2c1CCC(CN1CCN(C)CC1)=C2	1.2	0	30	1.2	0	60	0	80	–	–	–	–
COc1ccc(Cl)c2c1CCC(CN1CCC(C(N)=O)CC1)=C2	0.6	0	70	0.6	70	90	0	0	–	–	–	–
COc1ccc(Cl)c2c1CCC(CN1CCCC1)=C2 [pyrrolidino, 1-(2-[3,4-Dihydro-8-chloro-5-methoxynaphthyl]methyl)pyrrolidine]	1.2	0	60	2.2	0	80	0	20	–	–	–	2.2
CCC(=O)OC1CCN(CC2=Cc3c(Cl)ccc(OC)c3CC2)CC1	1.2	0	20	1.2	0	0	0	0	–	–	–	–
